According to patent publication US11253589B2, “Modulation of the immune response” (priority 2007, dated 2022):

Legend:
AHR = target: T1, AHR (Homo sapiens, UniProt P35869); conditions: cited from earlier work
T1 sequence (P35869 11-848): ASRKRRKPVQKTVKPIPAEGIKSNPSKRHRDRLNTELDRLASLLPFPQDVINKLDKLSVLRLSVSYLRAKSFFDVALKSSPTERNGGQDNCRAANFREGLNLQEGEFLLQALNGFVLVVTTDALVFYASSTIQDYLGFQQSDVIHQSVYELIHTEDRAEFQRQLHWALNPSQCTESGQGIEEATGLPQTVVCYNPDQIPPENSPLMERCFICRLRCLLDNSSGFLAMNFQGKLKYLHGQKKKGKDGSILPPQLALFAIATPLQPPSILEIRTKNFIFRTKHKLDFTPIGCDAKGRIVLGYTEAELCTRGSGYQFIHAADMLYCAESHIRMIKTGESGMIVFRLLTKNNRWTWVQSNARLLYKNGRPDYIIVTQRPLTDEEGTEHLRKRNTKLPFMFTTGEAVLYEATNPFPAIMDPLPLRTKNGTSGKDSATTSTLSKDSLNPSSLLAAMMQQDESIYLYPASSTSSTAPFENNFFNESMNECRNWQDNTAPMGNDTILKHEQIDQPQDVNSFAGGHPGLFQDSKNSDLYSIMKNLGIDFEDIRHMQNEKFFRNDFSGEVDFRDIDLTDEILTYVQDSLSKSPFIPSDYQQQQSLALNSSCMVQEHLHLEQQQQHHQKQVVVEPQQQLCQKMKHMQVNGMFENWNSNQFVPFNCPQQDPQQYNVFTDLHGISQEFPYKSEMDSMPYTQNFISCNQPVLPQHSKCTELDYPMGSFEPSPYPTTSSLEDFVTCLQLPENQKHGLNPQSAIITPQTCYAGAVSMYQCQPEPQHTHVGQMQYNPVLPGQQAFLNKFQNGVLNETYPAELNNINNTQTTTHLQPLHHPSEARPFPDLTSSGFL

[1] = compared with toxic effects reported for TCDD; cited from earlier work
C57BL/6 mice = assay: EAE induced by immunization with MOG35-55 in CFA; type: in vivo, mouse
CD4+Foxp3:GFP+ Treg = assay: Treg suppressive activity assay; type: cell-based, mouse; conditions: resveratrol treated cells
Description: Cells were cultured in serum-free X-VIVO 20™ media (BioWhittaker, Walkersville, Md., USA) for 72 hours. During the last 16 hours, cells were pulsed with 1 μCi of [^3H]thymidine (PerkinElmer, Waltham, Mass., USA) followed by harvesting on glass fiber filters and analysis of incorporated [^3H]thymidine in a beta-counter (1450 Microbeta, Trilux, PerkinElmer). Alternatively, culture supernatants were collected […] activation and the cytokine concentration was determined by ELISA using antibodies for IFN-γ, IL-17, IL-4, IL-10 from BD Biosciences and antibodies to TGF-β from R&D Systems. For suppression assays, MACS purified CD4^+CD25^− T cells from naïve C57BL/6 mice (1-5×10^4 cells/well) were stimulated with antibodies to CD3 and C57BL/6 irradiated spleen cells (0.3-1.5×10^4 cells/well) for 3 days in the presence of different ratios of CD4^+ GFP^+ retrovirus-transduced T cells.
To investigate the active suppression of MOG35-55-specific Teff by Treg, Foxp3^gpf knock in mice were immunized with MOG35-55/CFA, treated daily with intreaperitoneal ITE ([…]) and the recall response to MOG35-55 and a mitogenic antibody to CD3 antibody was studied on FACS-sorted CD4^+ T cells and CD4^+ FoxP3:GFP− Teff. […] This suppressed response to MOG35-55 was lost upon removal of the CD4^+FoxP3:GFP^+ Treg (FIG. 26). To further analyze the MOG35-55-specific suppressive activity of the CD4^+FoxP3:GFP^+ Treg, they were cocultured at different ratios and assayed for the suppression of MOG35-55 or anti-CD3-triggered proliferation of CD4^+FoxP3:GFP− Teff form 2D2 mice, which harbor a TCR specific for MOG35-55.

CD4+Foxp3:GFP- T cells = assay: In vitro conversion of CD4+Foxp3:GFP- T cells into Treg; type: cell-based, mouse; conditions: resveratrol 50 μM
Description: CD4+ T cells were purified from Foxp3gfp knock in mice using anti-CD4 beads (Miltenyi, Auburn, Calif., USA) and sorted (FACSAria™ cell sorter, BD Biosciences) into naive CD4^+ Foxp3:GFP^− or CD4^+ Foxp3:GFP T cells. CD4^+ Foxp3:GFP^− T cells were stimulated with plate bound 1 μg/ml of anti-CD3 (145-2C11, eBioscience) and 2 μg/ml of anti-CD28 (37.51, eBioscience) for 5 days, supplemented with recombinant IL-2 (50 U/ml) at day 2 and 4, and analyzed by FACS at day 5 for their differentiation into […]. TGFβ1 (2.5 ng/ml) was used as a positive control.
To establish if TCDD triggered the conversion of CD4^+Foxp3^− T cells into new Foxp3^+ Treg cells, FACS sorted CD4^+Foxp3:GFP− T cells were activated in vitro with antibodies to CD3 and CD28 in the presence of TCDD, and the generation of CD4^+Foxp3:GFP^+ Treg was followed by FACS. TGFb1 was used as a positive control.

[2] = test system: CD4+ CD62L+CD45RO- T cells; assay: In vitro differentiation of human naive CD4+ T cells, suppression and real time PCR; type: cell-based; conditions: 5 days activation with antibodies to CD3 and CD28; TGFb1 2.5 ng/ml or TCDD alone
Description: To investigate the potential of AHR targeting for the induction of human Treg we activated purified naïve CD4^+ CD62L^+CD45RO^− T cells for healthy donors for 5 days with antibodies to CD3 and CD28 in the presence of TCDD 100 nM or TGFb1 2.5 ng/ml or both.
To study the functionality of the putative human Treg induced in the presence of TCDD we studied their suppressive activity of CD4^+ CD25^High and CD4^+CD25^Low T cells following 5 days of activation in the of TCDD or TGFb1 2.5 ng/ml or both.
To investigate the mechanism mediating the suppressive activity of the TCDD-induced Treg, we analyzed them by real time PCR for the expression of several genes that have been previously linked to the suppressive function of Treg. […] Accordingly, IL-10-specific blocking antibodies could interfere with the suppressive activity of Treg induced with TCDD, but not the of those induced with TGFb1 and TCDD (FIG. 42). Thus, TCDD-induced CD4^+CD25^High T cells are FoxP3^− regulatory cells whose suppressive activity is mediated, at least partially, via IL-10, resembling the phenotype of type 1 Treg (Roncarolo et al., Immunol Rev. 212, 28 (2006); Roncarolo and Gregori, Eur J Immunol. 38, 925 (2008)).

NCCc1c[nH]c2ccccc12 [TA, tryptamine]
AHR affinity (AHR): high affinity AHR ligands
toxic effects [1]: do not display the toxic effects
EAE suppression (C57BL/6 mice; TA combined with the monoamine oxidase inhibitor Tranylcypromine): effectively suppresses EAE

O=Cc1c2c(cc3c1=Nc1ccccc1-3)=Nc1ccccc1-2 [FICZ, 6-formylindolo[3,2-b]carbazole]
EAE development (C57BL/6 mice; AHR-ligand loaded nanoparticles, 45 femtomoles weekly starting at day 0): worsened the disease

Oc1ccc(C=Cc2cc(O)cc(O)c2)cc1 [resveratrol]
suppressive activity of Treg (CD4+Foxp3:GFP+ Treg): Decreases in the suppressive activity
induction of Treg by TGFβ1 and TCDD (CD4+Foxp3:GFP- T cells): interfered with the induction of Treg

TGFb1: TGFβ1, positive control for Treg induction
induction of suppressive (regulatory) T cells [2]: did not result in the induction of suppressive T cells
